pIC50: −log10 of the molar value. Read-outs that look alike come from different tables or passages of the source.

From US20230365617A1, “SAPONIN DERIVATIVES FOR USE IN MEDICINE” (priority 2020, published 2023) come the findings set out here.

For series [1], the system named is HeLa cells. Put plainly: cells. The format is cell-based, human. The procedure: (§1) (FIGS. 66A and 66B). Next toxicity was determined, for this the modified saponins were titrated on HeLa and A431 cells. […] Next toxicity was determined, for this the modified saponins were titrated on HeLa and A431 cells.
Series [2] can be described thus: Critical micellar concentration (CMC) by ANS fluorescence. Format: physicochemical. As to conditions: for CMC compared with the corresponding native/underivatised saponin: qualitative. Here is the method: The critical micellar concentration (CMC) of saponins derived from Saponaria officinalis (SO) (Table A7) and derived from Quillaja saponaria (QS) (Table A8, and Table A9) was determined by the method of DeVendittis et al. (A fluorimetric method for the estimation of the critical micelle concentration of surfactants, Analytical Biochemistry, Volume 115, Issue 2, August 1981, Pages 278-286) as follows:
The emission spectrum of 8-Anilinonaphthalene-1-sulfonic acid (ANS) in either purified water (MQ) or PBS (Dulbecco’s PBS +/+) was determined at dry weight concentrations of saponins ranging from 1 to 1400 µM to cover the range below and above the CMC. Above the CMC, the fluorescence yield of ANS increases and the wavelength of maximum emission decreases due to portioning of the fluorescent dye into micelles. Fluorescence yields were recorded on a Fluoroskan Ascent FL (Thermo Scientific) at an excitation wavelength of 355 nm, and an emission wavelength of 460 nm. 6 µg at a concentration of 75.86 µM of ANS were used per sample and measurement.
The critical micellar concentration (CMC) of saponins was determined by the method of DeVendittis et al. (A fluorimetric method for the estimation of the critical micelle concentration of surfactants, Analytical Biochemistry, Volume 115, Issue 2, August 1981, Pages 278-286) as follows: […]

The subject of series [3] is HeLa cells. Put plainly: Pilot cell killing bioassay, saponin with or without 1.5 pM dianthin-EGF, 72 h. The format is cell-based, human. More on the design: key: Cell killing activity (+ or -); Cell killing activity (+ or -). Here is the method: HeLa cells were incubated for 72 h with the following constructs and cell viability before and after the 72 h-incubation was assessed. In the experiments, cells were exposed to 1.5 pM dianthin-EGF conjugate. A negative control were cells incubated with buffer vehicle and 10 microgram/ml saponin, without dianthin-EGF. Cell viability was set to 100% for the control in which both saponin and EGF-dianthin were omitted. […] Cell viability after 72 h was essentially 0%. For the chemically modified saponin variants, 10 microgram/ml saponin was tested in combination with 1.5 pM dianthin-EGF.

Series [4] relates to A431 cells (EGFR expressing). Put plainly: Cell viability, saponin titration with or without […] EGFdianthin. The format is cell-based, human.
Series [5] concerns A2058 cells (EGFR non-expressing). The description is as above. As to conditions: saponin as single compound. The format is cell-based, human.
The test system of series [6] is A431 cells. As to the kind of experiment: cells. Format: cell-based. The conditions noted are these: Homo sapiens, A-431, saponin alone, read-out: IC50 toxicity on A431 cells. The procedure: as §1
Series [7] in a line: in vitro. Format: cell-based, human. As to conditions: human red blood cells; read-out: IC50 hemolytic activity. Here is the method:
(§2) Cells were pelleted by centrifugation for 10 min, 800xg at RT.

The test system of series [8] is human red blood cells. Put plainly: cells. Format: cell-based. The conditions noted are these: Erythrocyte; for pIC50: human red blood cells, read-out: IC50 hemolytic activity. The procedure:
as §2

Where [9] appears, read: HeLa cells, saponin alone (Table A5), read-out: IC50 nM (Toxicity).
The mark [10] stands for this setting: SO saponins, determined in PBS (Table A7).
Setting [11] is: 10 µg/ml SO1861 or SO1861-derivative alone.
[12] abbreviates: SO1831 and Aescin, determined in PBS (Table A11).
[13] abbreviates: 10 µg/ml SO1861 or SO1861-derivative + […] EGFdianthin.

Consider `CC(=O)OC1C(C)OC(OC2C(C)OC(OC(=O)[C@]34CCC(C)(C)CC3C3=CCC5[C@@]6(C)CC[C@H](OC7OC(C(=O)NCCN8C(=O)C=CC8=O)C(O)C(OC8OCC(O)C(O)C8O)C7OC7OC(CO)C(O)C(O)C7O)[C@@](C)(C=O)C6CC[C@@]5(C)[C@]3(C)C[C@H]4O)C(OC3OC(C)C(OC4OCC(O)C(OC5OC(CO)C(O)C(O)C5O)C4O)C(O)C3O)C2O)C(O)C1OC1OCC(O)C(O)C1O` (stereo partly shown) [SO1861-Glu-AEM], for which the IC50 (as a rule, the concentration that gives 50% inhibition) in series [1] (setting [9]) was above 100000 nM. Besides, the “CMC” value in series [2] (setting [10]) worked out at 45 ± 5 µM. In addition, the “CMC compared with the corresponding native/underivatised saponin” value in series [2] is recorded as “lower CMC values”.

For the compound `CC(=O)OC1C(C)OC(OC2C(C)OC(OC(=O)C34CCC(C)(C)CC3C3=CCC5C6(C)CCC(OC7OC(C(=O)O)C(O)C(OC8OCC(O)C(O)C8O)C7OC7OC(CO)C(O)C(O)C7O)C(C)(C=NNC(=O)CCOCCOCCOCCOCCN=[N+]=[N-])C6CCC5(C)C3(C)CC4O)C(OC3OC(C)C(OC4OCC(O)C(OC5OC(CO)C(O)C(O)C5O)C4O)C(O)C3O)C2O)C(O)C1OC1OCC(O)C(O)C1O` (stereo not shown), the “Cell killing activity (+ or -)” value in series [3] (setting [11]) was “-”. For the same compound, the pIC50 in series [4] (read-out: general toxicity in absence of EGFdianthin, saponin as single compound) is below 5.00.

In the case of `CC(=O)OC1C(C)OC(OC2C(C)OC(OC(=O)[C@]34CCC(C)(C)CC3C3=CCC5[C@@]6(C)CC[C@H](OC7OC(C(=O)NCCN8C(=O)C=CC8=O)C(O)C(OC8OCC(O)C(O)C8O)C7OC7OC(CO)C(O)C(O)C7O)[C@@](C)(CO)C6CC[C@@]5(C)[C@]3(C)C[C@H]4O)C(OC3OC(C)C(OC4OCC(O)C(OC5OC(CO)C(O)C(O)C5O)C4O)C(O)C3O)C2O)C(O)C1OC1OCC(O)C(O)C1O` (stereo partly shown) [SO1861-(Glu-AEM)-(Ald-OH)], the “CMC” value in series [2] (setting [10]) worked out at 90 ± 10 µM. Besides, the “CMC compared with the corresponding native/underivatised saponin” value in series [2] is “lower CMC values”.

Turning to `CC(=O)OC1C(C)OC(OC2C(C)OC(OC(=O)[C@]34CCC(C)(C)CC3C3=CCC5[C@@]6(C)CC[C@H](OC7OC(C(=O)O)C(O)C(OC8OCC(O)C(O)C8O)C7OC7OC(CO)C(O)C(O)C7O)[C@@](C)(CO)C6CC[C@@]5(C)[C@]3(C)C[C@H]4O)C(OC3OC(C)C(OC4OCC(O)C(OC5OC(CO)C(O)C(O)C5O)C4O)C(O)C3O)C2O)C(O)C1OC1OCC(O)C(O)C1O` (stereo partly shown) [SO1861-Ald-OH], the “CMC” value in series [2] (setting [10]) is reported as 135 ± 14 µM. Besides, the “CMC compared with the corresponding native/underivatised saponin” value in series [2] was “higher CMC values”; in series [2] (listed as 6), “increased CMC”.

Turning to QS21 [reference compound], the CMC came to 49 µM in series [2] (QS saponins (Table A8, MQ)); 49 ± 5 µM in series [2] (QS saponins, determined in purified water (MQ) (Table A8)); 49 ± 5 µM in series [2] (in MQ (Table A9)); 40 ± 5 µM in series [2] (modified QS21 saponins, determined in PBS (Table A9)).

Take “Aescin [Aescin (98%), reference compound]”: the “CMC” value in series [2] (setting [12]) is 135 ± 14 µM.

As for `CC(=O)OC1C(C)OC(OC2C(C)OC(OC(=O)[C@]34CCC(C)(C)CC3C3=CCC5[C@@]6(C)CC[C@H](OC7OC(C(=O)O)C(O)C(OC8OCC(O)C(O)C8O)C7OC7OC(CO)C(O)C(O)C7O)[C@@](C)(C=O)C6CC[C@@]5(C)[C@]3(C)C[C@H]4O)C(OC3OC(C)C(OC4OCC(O)C(OC5OC(CO)C(O)C(O)C5O)C4O)C(O)C3O)C2O)C(O)C1OC1OCC(O)C(O)C1O` (stereo partly shown) [SO1861, reference compound], the CMC in series [2] (SO1861 saponins) is recorded as 185 µM; in series [2] (setting [10]) it was 185 ± 19 µM. Also, the “Cell killing activity (+ or -)” value in series [3] (setting [13]) was “+”; in series [3] (setting [11]), “-”. Besides, the “general toxicity in absence of EGFdianthin” value in series [4] (saponin as single compound) and in series [5] was “strong cell viability reduction” in each case.

Regarding `CC(=O)OC1C(C)OC(OC2C(C)OC(OC(=O)[C@]34CCC(C)(C)CC3C3=CCC5[C@@]6(C)CC[C@H](OC7OC(C(=O)O)C(O)C(OC8OCC(O)C(O)C8O)C7OC7OC(CO)C(O)C(O)C7O)[C@@](C)(/C=N/NC(=O)CCCCCN7C(=O)C[C@H](SCCO)C7=O)C6CC[C@@]5(C)[C@]3(C)CC4O)C(OC3OC(C)C(OC4OCC(O)C(OC5OC(CO)C(O)C(O)C5O)C4O)C(O)C3O)C2O)C(O)C1OC1OCC(O)C(O)C1O` (stereo partly shown) [SO1861-Ald-EMCH-blocked], the concentration for half-maximal inhibition (IC50) in series [1] (setting [9]) is above 100000 nM. In addition, the “CMC” value in series [2] (setting [10]) came to 50 ± 5 µM.

As to `CC[C@H](C)[C@H](C[C@H](O)CC(=O)OC1C(C)OC(OC(=O)[C@]23CCC(C)(C)CC2C2=CCC4[C@@]5(C)CC[C@H](OC6OC(C(=O)NC(C)(CO)CO)C(O)C(OC7OCC(O)C(O)C7O)C6OC6OC(CO)C(O)C(O)C6O)[C@@](C)(/C=N/NC(=O)CCCCCN6C(=O)C=CC6=O)C5CC[C@@]4(C)[C@]2(C)C[C@H]3O)C(OC2OC(C)C(OC3OCC(O)C(OC4OCC(O)(CO)C4O)C3O)C(O)C2O)C1O)OC(=O)C[C@@H](O)C[C@H](OC1OC(CO)C(O)C1O)[C@@H](C)CC` (stereo partly shown) [QS21-(Ald-EMCH)-(Glu-AMPD)], the half-inhibitory concentration (IC50) is above 30000 nM in series [1] (Homo sapiens, HeLa cells (Table A12, Example 8), read-out: IC50 nM (Toxicity)) and above 300000 nM in series [8] (human red blood cells (Table A12, Example 8), read-out: IC50 nM (hemolysis)). Moreover, the pIC50 in series [1] (Homo sapiens, HeLa, saponin alone, read-out: IC50 toxicity on HeLa cells) is below 4.52; in series [6], below 4.52; in series [8] it was below 3.52. Moreover, in series [7], the HC50 is above 1 mM.

Take `CC(=O)OC1C(C)OC(OC2C(C)OC(OC(=O)C34CCC(C)(C)CC3C3=CCC5C6(C)CCC(OC7OC(C(=O)NC(C)(CO)CO)C(O)C(OC8OCC(O)C(O)C8O)C7OC7OC(CO)C(O)C(O)C7O)C(C)(C=NNC(=O)CCCCCN7C(=O)C=CC7=O)C6CCC5(C)C3(C)CC4O)C(OC3OC(C)C(OC4OCC(O)C(OC5OC(CO)C(O)C(O)C5O)C4O)C(O)C3O)C2O)C(O)C1OC1OCC(O)C(O)C1O` (stereo not shown) [SO1861-(Ald-EMCH)-(Glu-AMPD)]: in series [2] (setting [10]), the “CMC” value is listed as above 30 µM. For the same compound, the “CMC compared with the corresponding native/underivatised saponin” value in series [2] is “lower CMC values”.

Turning to `CC(=O)OC1C(C)OC(OC2C(C)OC(OC(=O)[C@]34CCC(C)(C)CC3C3=CCC5[C@@]6(C)CC[C@H](OC7OC(C(=O)NC(C)(CO)CO)C(O)C(OC8OCC(O)C(O)C8O)C7OC7OC(CO)C(O)C(O)C7O)[C@@](C)(C=O)C6CC[C@@]5(C)[C@]3(C)C[C@H]4O)C(OC3OC(C)C(OC4OCC(O)C(OC5OC(CO)C(O)C(O)C5O)C4O)C(O)C3O)C2O)C(O)C1OC1OC(C)C(O)C(O)C1O` (stereo partly shown) [SO1861-Glu-AMPD], the “CMC” value in series [2] (setting [10]) was found to be 50 ± 5 µM. In series [2], the “CMC compared with the corresponding native/underivatised saponin” value was “lower CMC values”.

As to `CC(=O)On1nnc2cccnc21` [SO1861-Glu-HATU], the “Cell killing activity (+ or -)” value is recorded as “+” in series [3] (setting [13]) and “-” in series [3] (setting [11]).

Turning to `CC[C@H](C)[C@H](C[C@H](O)CC(=O)OC1C(C)OC(OC(=O)[C@]23CCC(C)(C)CC2C2=CCC4[C@@]5(C)CC[C@H](OC6OC(C(=O)O)C(O)C(OC7OCC(O)C(O)C7O)C6OC6OC(CO)C(O)C(O)C6O)[C@@](C)(/C=N/NC(=O)CCCCCN6C(=O)C=CC6=O)C5CC[C@@]4(C)[C@]2(C)C[C@H]3O)C(OC2OC(C)C(OC3OCC(O)C(OC4OCC(O)(CO)C4O)C3O)C(O)C2O)C1O)OC(=O)C[C@@H](O)C[C@H](OC1OC(CO)C(O)C1O)[C@@H](C)CC` (stereo partly shown) [QS21-Ald-EMCH], in series [1] (Homo sapiens, HeLa, read-out: IC50 nM (Toxicity), HeLa cells (Table A12, Example 8)), the half-inhibitory concentration (IC50) was above 30000 nM. For the same compound, in series [8] (Homo sapiens), the pIC50 was 4.52.

For the compound `CC(=O)OC1C(C)OC(OC2C(C)OC(OC(=O)[C@]34CCC(C)(C)CC3C3=CCC5[C@@]6(C)CC[C@H](OC7OC(C(=O)NC(C)(CO)CO)C(O)C(OC8OCC(O)C(O)C8O)C7OC7OC(CO)C(O)C(O)C7O)[C@@](C)(CO)C6CC[C@@]5(C)[C@]3(C)C[C@H]4O)C(OC3OC(C)C(OC4OCC(O)C(OC5OC(CO)C(O)C(O)C5O)C4O)C(O)C3O)C2O)C(O)C1OC1OCC(O)C(O)C1O` (stereo partly shown) [SO1861-(Ald-OH)-(Glu-AMPD)], the “CMC” value in series [2] (setting [10]) was 50 ± 5 µM. Further, in series [2], the “CMC compared with the corresponding native/underivatised saponin” value is “lower CMC values”.

In the case of “Aescin [Aescin (95%), reference compound]”, the “CMC” value in series [2] (setting [12]) turned out to be 130 ± 13 µM.
